22 compounds from PubChem BioAssay AID330 (DTP/NCI, 2004) can be followed below.

In the experiment the test system is P388 leukemia ip, CD2F1 mice, survival T/C. As to the kind of experiment: NCI In Vivo Anticancer Drug Screen. Data for tumor model P388 Leukemia (intraperitoneal) in CD2F1 (CDF1) mice. The note with it: endpoint: median survival time, higher = longer survival. Summed up: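 Mice carrying the transplanted tumor received test compound or vehicle. Survival was recorded in each group, and the value is the treated-group measurement divided by that of the vehicle-treated control group.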

[1] abbreviates: dose: 6.25 mg/kg/injection, schedule: Q01DX009 (ip), vehicle: saline with Tween-80.
Setting [2] is: dose: 12.5 mg/kg/injection, schedule: Q01DX009 (ip), vehicle: saline with Tween-80.
[3] abbreviates: dose: 25.0 mg/kg/injection, schedule: Q01DX009 (ip), vehicle: saline with Tween-80.
[4] abbreviates: dose: 60.0 mg/kg/injection, schedule: Q01DX005 (ip), vehicle: saline.
Where [5] appears, read: dose: 120.0 mg/kg/injection, schedule: Q01DX005 (ip), vehicle: saline.
Setting [6] is: dose: 240.0 mg/kg/injection, schedule: Q01DX005 (ip), vehicle: saline.
[7] abbreviates: dose: 50.0 mg/kg/injection, schedule: Q01DX005 (ip), vehicle: saline with Tween-80.
Where [8] appears, read: dose: 100.0 mg/kg/injection, schedule: Q01DX005 (ip), vehicle: saline with Tween-80.
Where [9] appears, read: dose: 50.0 mg/kg/injection, schedule: Q04DX003 (ip), vehicle: saline with Tween-80.
Setting [10] is: dose: 100.0 mg/kg/injection, schedule: Q01DX001 (ip), vehicle: saline with Tween-80.
[11] abbreviates: dose: 200.0 mg/kg/injection, schedule: Q01DX001 (ip), vehicle: saline with Tween-80.
[12] abbreviates: dose: 60.0 mg/kg/injection, schedule: Q01DX005 (ip), vehicle: saline with Tween-80.
Where [13] appears, read: dose: 120.0 mg/kg/injection, schedule: Q01DX005 (ip), vehicle: saline with Tween-80.
Setting [14] is: dose: 240.0 mg/kg/injection, schedule: Q01DX005 (ip), vehicle: saline with Tween-80.
The mark [15] stands for this setting: dose: 100.0 mg/kg/injection, schedule: Q04DX003 (ip), vehicle: saline.
Where [16] appears, read: dose: 200.0 mg/kg/injection, schedule: Q04DX003 (ip), vehicle: saline.
The mark [17] stands for this setting: dose: 400.0 mg/kg/injection, schedule: Q04DX003 (ip), vehicle: saline.
[18] abbreviates: dose: 100.0 mg/kg/injection, schedule: Q04DX003 (ip), vehicle: Klucel (hydroxypropylcellulose) (HPC).
[19] abbreviates: dose: 200.0 mg/kg/injection, schedule: Q04DX003 (ip), vehicle: Klucel (hydroxypropylcellulose) (HPC).
The mark [20] stands for this setting: dose: 400.0 mg/kg/injection, schedule: Q04DX003 (ip), vehicle: Klucel (hydroxypropylcellulose) (HPC).

Where “and” joins values, the source holds several entries; their conditions need not be identical. Identical values can stand only once. Inconclusive results and toxic doses are left out.

As to `CSc1nc(C)c(Br)c(Nc2ccc(C(N)=O)cc2)n1`, the T/C was 102 % of control (dose: 3.13 mg/kg/injection, schedule: Q01DX009 (ip), vehicle: saline with Tween-80); 94 % of control under setting [1]; 96 % of control under setting [2]; 94 % of control under setting [3].

As to `CC(C)=Cc1cc(-c2cc(C=C(C)C)on2)no1`, the T/C under setting [4] is 100 % of control, the T/C under setting [5] is 104 % of control and the T/C under setting [6] is 100 % of control.

Take `C=Cc1cc(=O)oc2cc(OC)ccc12`: the T/C by setting is: (dose: 12.5 mg/kg/injection, schedule: Q01DX005 (ip), vehicle: saline with Tween-80) 106 % of control and 94 % of control; (dose: 25.0 mg/kg/injection, schedule: Q01DX005 (ip), vehicle: saline with Tween-80) 108 % of control and 95 % of control; under setting [7], 105 % of control and 115 % of control and 121 % of control; under setting [8], 105 % of control.

As for `BrCC[Se](Br)(Br)c1ccccc1`, the T/C runs as follows: (dose: 1.56 mg/kg/injection, schedule: Q01DX009 (ip), vehicle: Klucel (hydroxypropylcellulose) (HPC)) 101 % of control; (dose: 3.12 mg/kg/injection, schedule: Q01DX009 (ip), vehicle: Klucel (hydroxypropylcellulose) (HPC)) 101 % of control; (dose: 6.25 mg/kg/injection, schedule: Q01DX009 (ip), vehicle: Klucel (hydroxypropylcellulose) (HPC)) 99 % of control and 93 % of control.

For `COc1cc(C=Nc2ccc(Cl)cc2)ccc1N(CCCl)CCCl`, the T/C reads like this: (dose: 0.44 mg/kg/injection, schedule: Q01DX009 (ip), vehicle: saline with Tween-80) 100 % of control; (dose: 0.66 mg/kg/injection, schedule: Q01DX009 (ip), vehicle: saline with Tween-80) 100 % of control; (dose: 1.0 mg/kg/injection, schedule: Q01DX009 (ip), vehicle: saline with Tween-80) 109 % of control; (dose: 2.5 mg/kg/injection, schedule: Q01DX009 (ip), vehicle: saline with Tween-80) 95 % of control; (dose: 5.0 mg/kg/injection, schedule: Q01DX009 (ip), vehicle: saline with Tween-80) 157 % of control; under setting [9], 204 % of control.

Take `CCCC#CC#N`: the T/C (dose: 50.0 mg/kg/injection, schedule: Q01DX009 (ip), vehicle: olive oil, sesame oil, peanut oil) was 116 % of control.

Turning to `CCCCCCCCC(O)C#CC(N)=O` (configuration not stated), the T/C by setting is: under setting [10], 99 % of control; under setting [11], 90 % of control.

`CC1(C)OCC(C2OC(O)C3OC(C)(C)OC32)O1` (configuration not stated): the T/C by setting is: (dose: 50.0 mg/kg/injection, schedule: Q01DX005 (ip), vehicle: saline) 100 % of control; (dose: 100.0 mg/kg/injection, schedule: Q01DX005 (ip), vehicle: saline) 101 % of control; (dose: 200.0 mg/kg/injection, schedule: Q01DX005 (ip), vehicle: saline) 107 % of control.

For `OC1c2ccccc2-c2cccc(N=Cc3ccc4c(c3)OCO4)c21` (configuration not stated), the T/C runs as follows: under setting [12], 108 % of control; under setting [13], 97 % of control; under setting [14], 95 % of control.

Turning to `Cn1c2nc(-[n+]3ccc(N4CCOCC4)cc3)nc-2c([O-])n(C)c1=O`, the T/C under setting [15] is 100 % of control, the T/C under setting [16] was 101 % of control and the T/C under setting [17] was 100 % of control.

Consider `CC(C)(Br)C(=O)N1CCN(C(c2ccccc2)c2ccccc2)CC1`, for which the T/C under setting [12] is 92 % of control, the T/C under setting [13] was 91 % of control and the T/C under setting [14] is 89 % of control.

In the case of `CC1=C/C(=N\[Se]c2ccccc2)C(=O)C(C)=C1`, the T/C under setting [18] was 100 % of control, the T/C under setting [19] was 91 % of control and the T/C under setting [20] was 96 % of control.

As to `CCCCCCCCCCCCCCCC(=O)OCC(=O)OC`, the T/C is 101 % of control (dose: 50.0 mg/kg/injection, schedule: Q01DX009 (ip), vehicle: Klucel (hydroxypropylcellulose) (HPC)); 93 % of control (dose: 100.0 mg/kg/injection, schedule: Q01DX009 (ip), vehicle: Klucel (hydroxypropylcellulose) (HPC)); 93 % of control (dose: 200.0 mg/kg/injection, schedule: Q01DX009 (ip), vehicle: Klucel (hydroxypropylcellulose) (HPC)).

For `C/C(N)=C/C(=O)c1ccccc1`, the T/C is 102 % of control under setting [15], 100 % of control under setting [16] and 105 % of control under setting [17].

As to `Cn1c(=O)c2snnc2n(C)c1=O`, the T/C by setting is: under setting [18], 107 % of control; under setting [19], 104 % of control.

Consider `CC(=O)Nc1ccc(/C=N/NC(=O)COc2ccccc2)cc1`, for which the T/C runs as follows: under setting [4], 100 % of control; under setting [5], 100 % of control; under setting [6], 100 % of control.

Regarding `CN1C(C)(C)CC2=C(c3ccccc3)c3ccccc3C2C1(C)C` (configuration not stated), the T/C by setting is: under setting [7], 106 % of control; under setting [8], 100 % of control; (dose: 200.0 mg/kg/injection, schedule: Q01DX005 (ip), vehicle: saline with Tween-80) 102 % of control.

`CCOC(=O)C1=C(NC(=O)Nc2ccccc2)N(C(=O)Nc2ccccc2)CCC1`: the T/C is, setting by setting: under setting [18], 100 % of control; under setting [19], 99 % of control; under setting [20], 102 % of control.

On to `Cc1ccc(N=C(SSC(Cl)(Cl)Cl)SSC(Cl)(Cl)Cl)cc1`, for which the T/C runs as follows: under setting [1], 91 % of control; under setting [2], 99 % of control; under setting [3], 100 % of control; (dose: 50.0 mg/kg/injection, schedule: Q01DX009 (ip), vehicle: saline + alcohol) 104 % of control; (dose: 50.0 mg/kg/injection, schedule: Q01DX009 (ip), vehicle: saline with Tween-80) 101 % of control.

For `N#Cc1c(C(=O)NN)c2c(-c3ccccc3)n[nH]c(=O)c2[nH]c1=O`, the T/C was 100 % of control under setting [10] and 91 % of control under setting [11].

As to `COC(/C=N/O)c1ccccc1` (configuration not stated), the T/C runs as follows: (dose: 25.0 mg/kg/injection, schedule: Q04DX003 (ip), vehicle: saline with Tween-80) 100 % of control; (dose: 25.0 mg/kg/injection, schedule: Q04DX003 (ip), vehicle: saline) 109 % of control; under setting [9], 100 % of control and 94 % of control; (dose: 50.0 mg/kg/injection, schedule: Q04DX003 (ip), vehicle: saline) 101 % of control; (dose: 100.0 mg/kg/injection, schedule: Q04DX003 (ip), vehicle: saline with Tween-80) 106 % of control and 87 % of control; under setting [15], 101 % of control. Besides, the T/C under setting [16] was 105 % of control.

For the compound `CCOC(=O)COc1ccc2c(C)cc(=O)oc2c1[N+](=O)[O-]`, the T/C was 102 % of control under setting [12], 99 % of control under setting [13] and 98 % of control under setting [14].
